Reference: ChEMBL document CHEMBL4622941, “Discovery of ASP5286: A novel non-immunosuppressive cyclophilin inhibitor for the treatment of HCV” (Bioorg Med Chem Lett, 2020)
In brackets after ≈: the same amount, converted by molar mass. Activity calls are given as the source filed them. The rule behind the calls is not given here. Where a SMILES comes first, the peptide text is derived from it. [ ]: non-standard residue; d: D form. MeBmt = C/C=C/C[C@@H](C)[C@@H](O)[C@H](NC)C(=O)O; NMePhg = CN[C@H](C(=O)O)c1ccccc1; NMeT = CN[C@H](C(=O)O)[C@@H](C)O; NMeL = CN[C@@H](CC(C)C)C(=O)O; NMeV = CN[C@H](C(=O)O)C(C)C; dNMeA = CN[C@H](C)C(=O)O; Sar = CNCC(=O)O

Key:
[1] = test system: Splenocyte; assay: Immunosuppressive activity in mouse splenocytes assessed as inhibition of ConA- induced proliferation; assay type: functional, cell-based
[2] = Inhibition of cyclophilin in Hepatitis C virus assessed as inhibition of viral replicon replication by qRT-PCR analysis; design: species or system Hepacivirus hominis
[3] = Inhibition of cyclophilin in Hepatitis C virus assessed as inhibition of viral replicon replication in presence of 5% FBS by qRT-PCR analysis; design: species or system Hepacivirus hominis
[4] = Aqueous solubility of the compound at pH 6.8; assay type: physicochemical
[5] = AUC (0 to 24 hrs) in po dosed rat; assay type: ADME, organism-based; design: time < 24 hr, route oral; conditions: in vivo
[6] = Oral bioavailability in rat; assay type: ADME, organism-based; conditions: in vivo
[7] = Inhibition of cyclophilin in Hepatitis C virus assessed as inhibition of viral replicon replication in presence of 10% HSA by qRT-PCR analysis; design: species or system Hepacivirus hominis
[8] = test system: Hepatitis C virus; assay: (§1) Antiviral activity against Hepatitis C virus genotype 1b infected in humanized liver SCID-Alb/uPA chimeric mouse assessed as reduction in serum HCV RNA level at 3.75 to 30 mg/kg, po bid administered via gavage for 14 days measured after 7 days without compound administration post-last dose; assay type: functional, organism-based; conditions: Hepacivirus hominis, subtype 1b
[9] = test system: Hepatitis C virus; assay: as §1, with “14 days cotreated with peginterferon-alpha2a at 10 ug/kg, sc administered twice a week and measured after” for “14 days measured after”; assay type: functional, organism-based; conditions: Hepacivirus hominis, subtype 1b

| Compound | IC50 [1] [µg/mL] | EC50 [2] [µg/mL] | EC50 [3] [µg/mL] | solubility [4] [µg/mL] | AUC(0-t) at 24 h [5] [ng·h/mL] | bioavailability [6] [%] | EC50 [7] [µg/mL] | Activity [8] | Activity [9] |
| --- | --- | --- | --- | --- | --- | --- | --- | --- | --- |
| C/C=C/C[C@@H](C)[C@@H](O)[C@H]1C(=O)N[C@@H]([C@@H](C)O)C(=O)N(C)CC(=O)N(C)[C@@H](CC2CCCCC2)C(=O)N[C@@H](CC(C)C)C(=O)N(C)[C@@H](CC(C)C)C(=O)N[C@@H](C)C(=O)N[C@H](C)C(=O)N(C)[C@@H](CC(C)C)C(=O)N[C@@H](CC(C)C)C(=O)N(C)[C@@H](C(C)C)C(=O)N1C | 0.065 (≈ 0.0516 µM) | 0.086 (≈ 0.0683 µM) |  |  |  |  |  |  |  |
| C/C=C/C[C@@H](C)[C@@H](O)[C@H]1C(=O)N[C@@H]([C@@H](C)O)C(=O)N(C)[C@H](C)C(=O)N(C)[C@@H]([C@@H](C)OO)C(=O)N[C@@H](CC(C)C)C(=O)N(C)[C@@H](CC(C)C)C(=O)N[C@@H](C)C(=O)N[C@H](C)C(=O)N(C)[C@@H](CC(C)C)C(=O)N[C@@H](CC(C)C)C(=O)N(C)[C@@H](C(C)C)C(=O)N1C | 1.9 (≈ 1.54 µM) |  | 0.061 | > 122 | 5680 | 32 | 0.086 |  |  |
| C/C=C/C[C@@H](C)[C@@H](O)[C@H]1C(=O)N[C@@H]([C@@H](C)O)C(=O)N(C)[C@H](C)C(=O)N(C)[C@@H](C2CCCCC2)C(=O)N[C@@H](CC(C)C)C(=O)N(C)[C@@H](CC(C)C)C(=O)N[C@@H](C)C(=O)N[C@H](C)C(=O)N(C)[C@@H](CC(C)C)C(=O)N[C@@H](CC(C)C)C(=O)N(C)[C@@H](C(C)C)C(=O)N1C | 0.35 (≈ 0.278 µM) | 0.042 (≈ 0.0334 µM) |  |  |  |  |  |  |  |
| C/C=C/C[C@@H](C)[C@@H](O)[C@H]1C(=O)N[C@@H]([C@@H](C)O)C(=O)N(C)CC(=O)N(C)[C@@H](CC(C)C)C(=O)N[C@@H](CC(C)C)C(=O)N(C)[C@@H](CC(C)C)C(=O)N[C@@H](C)C(=O)N[C@H](C)C(=O)N(C)[C@@H](CC(C)C)C(=O)N[C@@H](CC(C)C)C(=O)N(C)[C@@H](C(C)C)C(=O)N1C (cyclo(A[dA][NMeL]L[NMeV][MeBmt]T[Sar][NMeL]L[NMeL])) | 0.026 (≈ 0.0213 µM) | 0.096 (≈ 0.0788 µM) | 0.096 | 6.5 (≈ 5.33 µM) | 140 | 4.3 | 0.37 |  |  |
| C/C=C/C[C@@H](C)[C@@H](O)[C@H]1C(=O)N[C@@H]([C@@H](C)O)C(=O)N(C)[C@H](C)C(=O)N(C)[C@@H]([C@@H](C)CC)C(=O)N[C@@H](CC(C)C)C(=O)N(C)[C@@H](CC(C)C)C(=O)N[C@@H](C)C(=O)N[C@H](C)C(=O)N(C)[C@@H](CC(C)C)C(=O)N[C@@H](CC(C)C)C(=O)N(C)[C@@H](C(C)C)C(=O)N1C | 1.1 (≈ 0.892 µM) | 0.039 (≈ 0.0316 µM) | 0.039 | < 0.1 | 13300 | 49 | 0.05 |  |  |
| C/C=C/C[C@@H](C)[C@@H](O)[C@H]1C(=O)N[C@@H]([C@@H](C)O)C(=O)N(C)CC(=O)N(C)[C@@H](C2CCCCC2)C(=O)N[C@@H](CC(C)C)C(=O)N(C)[C@@H](CC(C)C)C(=O)N[C@@H](C)C(=O)N[C@H](C)C(=O)N(C)[C@@H](CC(C)C)C(=O)N[C@@H](CC(C)C)C(=O)N(C)[C@@H](C(C)C)C(=O)N1C | 0.41 (≈ 0.329 µM) | 0.063 (≈ 0.0506 µM) |  |  |  |  |  |  |  |
| C/C=C/C[C@@H](C)[C@@H](O)[C@H]1C(=O)N[C@@H]([C@@H](C)O)C(=O)N(C)CC(=O)N(C)[C@@H]([C@@H](C)CC)C(=O)N[C@@H](CC(C)C)C(=O)N(C)[C@@H](CC(C)C)C(=O)N[C@@H](C)C(=O)N[C@H](C)C(=O)N(C)[C@@H](CC(C)C)C(=O)N[C@@H](CC(C)C)C(=O)N(C)[C@@H](C(C)C)C(=O)N1C | 0.77 (≈ 0.632 µM) | 0.15 (≈ 0.123 µM) | 0.15 | 0.2 (≈ 0.164 µM) | 111 | 2.1 | 2 |  |  |
| C/C=C/C[C@@H](C)[C@@H](O)[C@H]1C(=O)N[C@@H]([C@@H](C)O)C(=O)N(C)[C@H](C)C(=O)N(C)[C@@H]([C@@H](C)OC(C)(C)C)C(=O)N[C@@H](CC(C)C)C(=O)N(C)[C@@H](CC(C)C)C(=O)N[C@@H](C)C(=O)N[C@H](C)C(=O)N(C)[C@@H](CC(C)C)C(=O)N[C@@H](CC(C)C)C(=O)N(C)[C@@H](C(C)C)C(=O)N1C | 1.6 (≈ 1.25 µM) |  | 0.03 | < 0.1 | 9450 | 74 | 0.11 |  |  |
| C/C=C/C[C@@H](C)[C@@H](O)[C@H]1C(=O)N[C@@H]([C@@H](C)O)C(=O)N(C)[C@H](C)C(=O)N(C)[C@@H](c2ccccc2)C(=O)N[C@@H](CC(C)C)C(=O)N(C)[C@@H](CC(C)C)C(=O)N[C@@H](C)C(=O)N[C@H](C)C(=O)N(C)[C@@H](CC(C)C)C(=O)N[C@@H](CC(C)C)C(=O)N(C)[C@@H](C(C)C)C(=O)N1C (cyclo(A[dA][NMeL]L[NMeV][MeBmt]T[dNMeA][NMePhg]L[NMeL])) | 1.35 (≈ 1.08 µM) | 0.084 (≈ 0.0671 µM) |  |  |  |  |  |  |  |
| C/C=C/C[C@@H](C)[C@@H](O)[C@H]1C(=O)N[C@@H]([C@@H](C)O)C(=O)N(C)CC(=O)N(C)[C@@H](c2ccccc2)C(=O)N[C@@H](CC(C)C)C(=O)N(C)[C@@H](CC(C)C)C(=O)N[C@@H](C)C(=O)N[C@H](C)C(=O)N(C)[C@@H](CC(C)C)C(=O)N[C@@H](CC(C)C)C(=O)N(C)[C@@H](C(C)C)C(=O)N1C | 0.8 (≈ 0.646 µM) | 0.12 (≈ 0.0969 µM) |  |  |  |  |  |  |  |
| C/C=C/C[C@@H](C)[C@@H](O)[C@H]1C(=O)N[C@@H]([C@@H](C)O)C(=O)N(C)[C@H](C)C(=O)N(C)[C@@H](CC(C)C)C(=O)N[C@@H](CC(C)C)C(=O)N(C)[C@@H](CC(C)C)C(=O)N[C@@H](C)C(=O)N[C@H](C)C(=O)N(C)[C@@H](CC(C)C)C(=O)N[C@@H](CC(C)C)C(=O)N(C)[C@@H](C(C)C)C(=O)N1C | 0.07 (≈ 0.0568 µM) | 0.038 (≈ 0.0308 µM) | 0.038 |  | 4210 | 40 | 0.35 |  |  |
| C/C=C/C[C@@H](C)[C@@H](O)[C@H]1C(=O)N[C@@H]([C@@H](C)O)C(=O)N(C)[C@H](C)C(=O)N(C)[C@@H]([C@@H](C)OC)C(=O)N[C@@H](CC(C)C)C(=O)N(C)[C@@H](CC(C)C)C(=O)N[C@@H](C)C(=O)N[C@H](C)C(=O)N(C)[C@@H](CC(C)C)C(=O)N[C@@H](CC(C)C)C(=O)N(C)[C@@H](C(C)C)C(=O)N1C (cyclo(A[dA][NMeL]L[NMeV][MeBmt]T[dNMeA][NMeT](Me)L[NMeL])) | 0.97 (≈ 0.786 µM) |  | 0.04 | 117 (≈ 94.8 µM) | 16100 | 36 | 0.061 | Active | Active |
